Reference: publication PMC12373846, “Hemoglobin as a pseudoperoxidase and drug target for oxidative stress-related diseases” (Signal Transduction and Targeted Therapy, 2025)

Tests used:
TRKA = target: T1, TRKA (Homo sapiens, UniProt P04629); assay: KINOMEscan; type: binding; settings: 10000 nM; read-out: Percent Control
T1 construct: purchased DiscoverX KINOMEscan scanEDGE; Eurofins Cerep SafetyScreen87
Outline: (§1)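 For kinases, the test compound was assessed by site-directed competitive binding in the scanEDGE panel; for GPCRs and enzymes such as phosphodiesterases, by the Delta SafetyScreen87 panel.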

DCAMKL1 = target: T2, DCAMKL1 (Homo sapiens, UniProt O15075); assay: KINOMEscan; type: binding; settings: 10000 nM; read-out: Percent Control
T2 construct: purchased DiscoverX KINOMEscan scanEDGE; Eurofins Cerep SafetyScreen87
Outline: as §1

CHEK1 = target: T3, CHEK1 (Homo sapiens, UniProt O14757); assay: KINOMEscan; type: binding; settings: 10000 nM; read-out: Percent Control
T3 construct: purchased DiscoverX KINOMEscan scanEDGE; Eurofins Cerep SafetyScreen87
Outline: as §1

PIK3CA = target: T4, PIK3CA (Homo sapiens, UniProt P42336); assay: KINOMEscan; type: binding; settings: 10000 nM; read-out: Percent Control
T4 construct: purchased DiscoverX KINOMEscan scanEDGE; Eurofins Cerep SafetyScreen87
Outline: as §1

AKT1 = target: T5, AKT1 (Homo sapiens, UniProt P31749); assay: KINOMEscan; type: binding; settings: 10000 nM; read-out: Percent Control
T5 construct: purchased DiscoverX KINOMEscan scanEDGE; Eurofins Cerep SafetyScreen87
Outline: as §1

ACVR1B = target: T6, ACVR1B (Homo sapiens, UniProt P36896); assay: KINOMEscan; type: binding; settings: 10000 nM; read-out: Percent Control
T6 construct: purchased DiscoverX KINOMEscan scanEDGE; Eurofins Cerep SafetyScreen87
Outline: as §1

FGFR3 = target: T7, FGFR3 (Homo sapiens, UniProt P22607); assay: KINOMEscan; type: binding; settings: 10000 nM; read-out: Percent Control
T7 construct: purchased DiscoverX KINOMEscan scanEDGE; Eurofins Cerep SafetyScreen87
Outline: as §1

ABL1-phosphorylated = target: T8, ABL1-phosphorylated (Homo sapiens, UniProt P00519); assay: KINOMEscan; type: binding; settings: 10000 nM; read-out: Percent Control
T8 construct: purchased DiscoverX KINOMEscan scanEDGE; Eurofins Cerep SafetyScreen87
Outline: as §1

PRKCE = target: T9, PRKCE (Homo sapiens, UniProt Q02156); assay: KINOMEscan; type: binding; settings: 10000 nM; read-out: Percent Control
T9 construct: purchased DiscoverX KINOMEscan scanEDGE; Eurofins Cerep SafetyScreen87
Outline: as §1

ULK2 = target: T10, ULK2 (Homo sapiens, UniProt Q8IYT8); assay: KINOMEscan; type: binding; settings: 10000 nM; read-out: Percent Control
T10 construct: purchased DiscoverX KINOMEscan scanEDGE; Eurofins Cerep SafetyScreen87
Outline: as §1

MEK2 = target: T11, MEK2 (Homo sapiens, UniProt P36507); assay: KINOMEscan; type: binding; settings: 10000 nM; read-out: Percent Control
T11 construct: purchased DiscoverX KINOMEscan scanEDGE; Eurofins Cerep SafetyScreen87
Outline: as §1

PAK4 = target: T12, PAK4 (Homo sapiens, UniProt O96013); assay: KINOMEscan; type: binding; settings: 10000 nM; read-out: Percent Control
T12 construct: purchased DiscoverX KINOMEscan scanEDGE; Eurofins Cerep SafetyScreen87
Outline: as §1

PIK3C2B = target: T13, PIK3C2B (Homo sapiens, UniProt O00750); assay: KINOMEscan; type: binding; settings: 10000 nM; read-out: Percent Control
T13 construct: purchased DiscoverX KINOMEscan scanEDGE; Eurofins Cerep SafetyScreen87
Outline: as §1

PAK2 = target: T14, PAK2 (Homo sapiens, UniProt Q13177); assay: KINOMEscan; type: binding; settings: 10000 nM; read-out: Percent Control
T14 construct: purchased DiscoverX KINOMEscan scanEDGE; Eurofins Cerep SafetyScreen87
Outline: as §1

CDK11 = target: T15, CDK11 (Homo sapiens, UniProt Q9BWU1); assay: KINOMEscan; type: binding; settings: 10000 nM; read-out: Percent Control
T15 construct: purchased DiscoverX KINOMEscan scanEDGE; Eurofins Cerep SafetyScreen87
Outline: as §1

DYRK1B = target: T16, DYRK1B (Homo sapiens, UniProt Q9Y463); assay: KINOMEscan; type: binding; settings: 10000 nM; read-out: Percent Control
T16 construct: purchased DiscoverX KINOMEscan scanEDGE; Eurofins Cerep SafetyScreen87
Outline: as §1

EGFR(L858R) = target: T17, EGFR(L858R) (Homo sapiens, UniProt P00533, L858R); assay: KINOMEscan; type: binding; settings: 10000 nM; read-out: Percent Control
T17 construct: purchased DiscoverX KINOMEscan scanEDGE; Eurofins Cerep SafetyScreen87
Outline: as §1

CAT = assay: ROS-Glo H2O2 assay with CAT; type: biochemical
Method: Hb (Sigma‒Aldrich, H7379), H2O2 (Sigma‒Aldrich, H1009), and Amplex Red reagents (Invitrogen, A12222) were obtained for the study. A 4 μM H2O2 solution was prepared in 50 mM sodium phosphate buffer (pH 7.2). Then, 49 μl of this mixture was mixed with 1 μl of the test compound in DMSO or distilled water. The mixture was combined with an assay mixture of Amplex Red reagent (20 mM stock to 0.1 mM) and HRP (200 U/ml stock to 0.2 U/ml) and added to the wells at 50 μl/well. After a 60-min incubation at 37 °C, resorufin production was quantified via a microplate fluorescence reader (SpectraMax iD5, Molecular Devices) at ex/em = 535/580 nm. The H2O2-decomposing activity was estimated via the following equation: (sample fluorescence-blank fluorescence)/(control […]-blank fluorescence) × 100. For the ROS-Glo assay, the H2O2 substrate solution and ROS-Glo detection solution were prepared according to the manufacturer’s instructions. 10 μM H2O2 and drugs were prepared as in the Amplex Red assay, with HRP, Hb, CAT, or GPx added as needed. […] Luminescence was measured via iD5 microplate readers. The H2O2-decomposing activity was estimated via the following equation: (sample luminescence-blank luminescence)/(control luminescence-blank luminescence) × 100. The U/ml was calculated on the basis of the amount of H2O2 reduced by Hb during the reaction, using μg/ml and U/mg.

T10 sequence (Q8IYT8 whole entry): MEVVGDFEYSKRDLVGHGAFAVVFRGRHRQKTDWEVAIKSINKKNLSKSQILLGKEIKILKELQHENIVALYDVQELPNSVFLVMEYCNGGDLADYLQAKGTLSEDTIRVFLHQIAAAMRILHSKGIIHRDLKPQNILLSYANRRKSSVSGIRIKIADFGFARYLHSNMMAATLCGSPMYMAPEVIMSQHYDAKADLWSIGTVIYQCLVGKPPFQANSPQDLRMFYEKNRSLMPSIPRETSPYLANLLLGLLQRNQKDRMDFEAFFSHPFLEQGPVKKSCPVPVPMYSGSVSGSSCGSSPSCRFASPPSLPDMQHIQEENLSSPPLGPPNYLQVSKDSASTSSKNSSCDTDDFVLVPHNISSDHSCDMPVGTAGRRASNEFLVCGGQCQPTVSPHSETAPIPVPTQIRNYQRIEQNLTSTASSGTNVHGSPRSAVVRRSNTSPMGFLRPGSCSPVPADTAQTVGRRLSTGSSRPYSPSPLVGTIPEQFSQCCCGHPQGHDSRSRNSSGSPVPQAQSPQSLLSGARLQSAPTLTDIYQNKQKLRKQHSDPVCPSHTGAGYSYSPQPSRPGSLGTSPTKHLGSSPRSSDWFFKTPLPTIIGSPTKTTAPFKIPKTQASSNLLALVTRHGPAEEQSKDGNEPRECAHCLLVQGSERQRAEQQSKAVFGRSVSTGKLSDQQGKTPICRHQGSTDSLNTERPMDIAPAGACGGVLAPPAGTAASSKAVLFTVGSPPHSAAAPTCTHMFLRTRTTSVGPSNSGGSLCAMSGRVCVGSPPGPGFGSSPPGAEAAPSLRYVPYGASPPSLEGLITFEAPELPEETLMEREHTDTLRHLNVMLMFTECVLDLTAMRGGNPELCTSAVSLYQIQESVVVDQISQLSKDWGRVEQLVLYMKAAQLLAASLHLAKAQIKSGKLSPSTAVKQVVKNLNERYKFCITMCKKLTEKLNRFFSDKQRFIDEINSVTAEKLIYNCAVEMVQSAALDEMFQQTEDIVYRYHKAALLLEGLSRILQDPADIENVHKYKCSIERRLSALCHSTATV
T13 sequence (O00750 whole entry): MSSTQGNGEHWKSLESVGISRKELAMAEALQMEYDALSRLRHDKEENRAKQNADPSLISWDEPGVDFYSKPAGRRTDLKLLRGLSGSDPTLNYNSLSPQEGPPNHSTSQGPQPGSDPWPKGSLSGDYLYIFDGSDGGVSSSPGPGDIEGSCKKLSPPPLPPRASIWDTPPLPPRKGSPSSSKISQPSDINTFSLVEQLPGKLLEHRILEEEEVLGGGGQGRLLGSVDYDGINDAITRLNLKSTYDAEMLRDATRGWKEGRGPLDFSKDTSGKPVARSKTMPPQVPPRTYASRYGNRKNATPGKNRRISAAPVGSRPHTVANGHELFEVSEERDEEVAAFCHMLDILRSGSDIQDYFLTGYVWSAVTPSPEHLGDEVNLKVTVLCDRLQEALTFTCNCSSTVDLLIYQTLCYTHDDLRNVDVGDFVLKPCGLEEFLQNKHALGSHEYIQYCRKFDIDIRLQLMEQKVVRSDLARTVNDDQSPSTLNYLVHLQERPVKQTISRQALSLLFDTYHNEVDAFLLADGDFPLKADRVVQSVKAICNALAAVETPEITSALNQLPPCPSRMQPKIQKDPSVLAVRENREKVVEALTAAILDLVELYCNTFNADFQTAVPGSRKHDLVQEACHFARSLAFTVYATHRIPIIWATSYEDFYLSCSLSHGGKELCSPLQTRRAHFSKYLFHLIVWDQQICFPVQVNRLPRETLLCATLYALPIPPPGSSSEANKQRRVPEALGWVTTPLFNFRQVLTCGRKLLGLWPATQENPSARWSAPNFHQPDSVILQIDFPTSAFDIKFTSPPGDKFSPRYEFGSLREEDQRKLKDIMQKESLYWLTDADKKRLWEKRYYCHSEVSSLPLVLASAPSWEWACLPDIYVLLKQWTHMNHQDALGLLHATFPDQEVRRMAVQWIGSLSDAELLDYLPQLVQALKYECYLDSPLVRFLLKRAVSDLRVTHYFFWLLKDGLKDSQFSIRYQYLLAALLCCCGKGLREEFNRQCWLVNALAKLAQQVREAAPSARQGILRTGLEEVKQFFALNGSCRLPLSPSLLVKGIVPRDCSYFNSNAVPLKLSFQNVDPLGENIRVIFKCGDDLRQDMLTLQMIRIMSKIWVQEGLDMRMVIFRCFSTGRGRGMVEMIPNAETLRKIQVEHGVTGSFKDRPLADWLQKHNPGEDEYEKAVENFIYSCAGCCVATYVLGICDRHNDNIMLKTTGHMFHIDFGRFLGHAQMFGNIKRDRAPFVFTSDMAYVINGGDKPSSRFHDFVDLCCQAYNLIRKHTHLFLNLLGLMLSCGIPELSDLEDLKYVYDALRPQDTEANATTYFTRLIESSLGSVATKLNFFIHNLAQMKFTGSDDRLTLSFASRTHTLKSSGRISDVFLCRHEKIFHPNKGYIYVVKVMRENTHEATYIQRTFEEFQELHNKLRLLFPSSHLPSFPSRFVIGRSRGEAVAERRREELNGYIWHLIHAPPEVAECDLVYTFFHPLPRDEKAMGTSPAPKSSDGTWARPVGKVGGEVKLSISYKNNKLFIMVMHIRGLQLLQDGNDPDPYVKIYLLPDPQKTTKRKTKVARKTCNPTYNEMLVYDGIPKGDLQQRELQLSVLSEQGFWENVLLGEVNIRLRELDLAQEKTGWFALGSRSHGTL
T6 sequence (P36896 24-505): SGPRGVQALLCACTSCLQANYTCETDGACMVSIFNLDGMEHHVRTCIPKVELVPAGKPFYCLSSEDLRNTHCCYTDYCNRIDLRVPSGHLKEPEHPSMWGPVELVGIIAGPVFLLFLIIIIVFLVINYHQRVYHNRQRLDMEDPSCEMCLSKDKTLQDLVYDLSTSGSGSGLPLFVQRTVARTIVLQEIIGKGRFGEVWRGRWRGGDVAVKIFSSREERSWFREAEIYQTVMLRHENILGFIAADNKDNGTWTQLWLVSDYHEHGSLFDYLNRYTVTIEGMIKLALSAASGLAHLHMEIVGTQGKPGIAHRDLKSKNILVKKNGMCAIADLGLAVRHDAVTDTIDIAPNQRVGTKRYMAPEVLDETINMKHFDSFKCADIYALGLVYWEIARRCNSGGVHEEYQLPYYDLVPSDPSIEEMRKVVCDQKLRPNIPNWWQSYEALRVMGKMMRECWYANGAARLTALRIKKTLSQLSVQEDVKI
T5 sequence (P31749 whole entry): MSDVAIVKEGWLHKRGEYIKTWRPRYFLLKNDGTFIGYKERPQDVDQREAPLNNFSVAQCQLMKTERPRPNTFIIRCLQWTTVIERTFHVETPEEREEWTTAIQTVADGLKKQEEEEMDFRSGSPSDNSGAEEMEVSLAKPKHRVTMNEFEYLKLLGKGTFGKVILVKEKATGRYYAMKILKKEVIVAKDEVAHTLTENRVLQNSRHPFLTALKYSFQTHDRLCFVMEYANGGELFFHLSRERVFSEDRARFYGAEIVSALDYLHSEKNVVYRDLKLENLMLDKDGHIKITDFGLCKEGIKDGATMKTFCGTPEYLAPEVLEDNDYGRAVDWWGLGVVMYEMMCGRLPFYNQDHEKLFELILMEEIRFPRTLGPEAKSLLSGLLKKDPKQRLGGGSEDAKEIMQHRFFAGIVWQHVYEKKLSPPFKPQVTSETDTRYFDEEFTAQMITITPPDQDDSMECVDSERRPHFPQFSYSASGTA
T7 sequence (P22607 23-806): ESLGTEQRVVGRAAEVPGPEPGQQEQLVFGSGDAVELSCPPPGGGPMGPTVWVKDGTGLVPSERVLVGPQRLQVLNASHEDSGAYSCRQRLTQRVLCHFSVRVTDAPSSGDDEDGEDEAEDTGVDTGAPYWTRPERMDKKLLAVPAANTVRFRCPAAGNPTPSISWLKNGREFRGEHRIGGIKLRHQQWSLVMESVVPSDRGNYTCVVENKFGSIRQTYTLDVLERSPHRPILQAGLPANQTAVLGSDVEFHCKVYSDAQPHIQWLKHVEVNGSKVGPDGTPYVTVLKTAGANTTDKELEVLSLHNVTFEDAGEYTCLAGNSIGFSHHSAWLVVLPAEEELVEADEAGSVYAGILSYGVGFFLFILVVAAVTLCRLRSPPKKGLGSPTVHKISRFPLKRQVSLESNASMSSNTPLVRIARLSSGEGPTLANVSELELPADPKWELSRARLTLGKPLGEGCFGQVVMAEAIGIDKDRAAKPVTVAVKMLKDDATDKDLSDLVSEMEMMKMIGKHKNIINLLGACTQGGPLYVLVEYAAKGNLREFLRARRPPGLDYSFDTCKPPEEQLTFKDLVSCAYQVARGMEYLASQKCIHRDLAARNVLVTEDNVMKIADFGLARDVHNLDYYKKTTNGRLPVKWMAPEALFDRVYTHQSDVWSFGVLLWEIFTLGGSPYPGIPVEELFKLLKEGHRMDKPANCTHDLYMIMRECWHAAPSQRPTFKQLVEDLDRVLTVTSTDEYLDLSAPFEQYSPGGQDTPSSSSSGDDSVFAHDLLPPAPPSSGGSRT
T14 sequence (Q13177 whole entry): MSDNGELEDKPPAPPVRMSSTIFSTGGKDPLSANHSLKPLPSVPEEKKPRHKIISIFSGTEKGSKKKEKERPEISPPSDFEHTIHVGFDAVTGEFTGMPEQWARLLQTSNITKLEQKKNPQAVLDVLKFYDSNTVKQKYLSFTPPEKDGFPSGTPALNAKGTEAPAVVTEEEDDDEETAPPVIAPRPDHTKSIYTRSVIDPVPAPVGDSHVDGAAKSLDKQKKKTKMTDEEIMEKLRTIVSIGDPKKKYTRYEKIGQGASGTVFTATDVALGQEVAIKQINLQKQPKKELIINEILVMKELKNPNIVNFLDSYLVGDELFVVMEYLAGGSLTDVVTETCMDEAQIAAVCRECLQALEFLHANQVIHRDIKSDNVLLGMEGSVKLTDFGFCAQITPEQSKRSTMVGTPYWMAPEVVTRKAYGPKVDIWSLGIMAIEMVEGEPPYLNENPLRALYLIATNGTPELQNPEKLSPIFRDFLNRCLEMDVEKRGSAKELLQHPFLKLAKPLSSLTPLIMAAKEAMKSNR

Row | Structure (SMILES) | remaining binding at 10 µM (TRKA) [%] | remaining binding at 10 µM (DCAMKL1) [%] | remaining binding at 10 µM (CHEK1) [%] | remaining binding at 10 µM (PIK3CA) [%] | remaining binding at 10 µM (AKT1) [%] | remaining binding at 10 µM (ACVR1B) [%] | remaining binding at 10 µM (FGFR3) [%] | remaining binding at 10 µM (ABL1-phosphorylated) [%] | remaining binding at 10 µM (PRKCE) [%] | remaining binding at 10 µM (ULK2) [%] | remaining binding at 10 µM (MEK2) [%] | remaining binding at 10 µM (PAK4) [%] | remaining binding at 10 µM (PIK3C2B) [%] | remaining binding at 10 µM (PAK2) [%] | remaining binding at 10 µM (CDK11) [%] | remaining binding at 10 µM (DYRK1B) [%] | remaining binding at 10 µM (EGFR(L858R)) [%] | effect on CAT activity (CAT)
1 | CNc1ccc(NCCc2ccccc2OC)cc1.Cl [KDS12025, N^1-(2-methoxyphenethyl)-N^4-methylbenzene-1,4-diamine hydrochloride salt] | 100 | 82 | 82 | 63 | 75 | 100 | 91 | 100 | 100 | 95 | 91 | 100 | 91 | 94 | 73 | 67 | 45 | 
2 | O=C(O)c1cc(NCCc2ccc(C(F)(F)F)cc2)ccc1O [HTPEB, 2-hydroxy-5-[2-(4-trifluoromethyl-phenyl)-ethylamino]-benzoic acid, reference compound] |  |  |  |  |  |  |  |  |  |  |  |  |  |  |  |  |  | did not increase
